In patent US4014875A, “Process of making di or tribromomethanesulfonamides” (The Dow Chemical Company, priority 1975, dated 1977):
Values after ≈ are worked out from the molar mass of the structure shown.

How the values were obtained:
Type in all cases: cell-based
[1] = tested on: C. albicans; experiment: agar dilution test, growth inhibition of C. albicans; details: Candida albicans; Ca = C. albicans; 100% growth inhibition (kills); read-out: Minimum Growth Inhibitory Concentration
Procedure: (§1) In representative operations, compounds of the present invention were tested for their activity as antimicrobials using conventional agar dilution tests. The following Table presents results, expressed as concentration of toxicant in parts per million to achieve 100% growth inhibition (kills) of the indicated organisms.

[2] = tested on: P. pullulans; experiment: agar dilution test, growth inhibition of P. pullulans; details: Pp = P. pullulans; 100% growth inhibition (kills); read-out: Minimum Growth Inhibitory Concentration
Procedure: as §1

[3] = tested on: B. subtilis; experiment: agar dilution test, growth inhibition of B. subtilis; set-up: key to Minimum Growth Inhibitory Concentration: *: 50% control at 500 ppm; details: Bs = B. subtilis, 100% growth inhibition (kills); for MIC: Bacillus subtilis, read-out: Minimum Growth Inhibitory Concentration
Procedure: as §1

[4] = tested on: T, mentagrophytes; experiment: agar dilution test, growth inhibition of T, mentagrophytes; details: Tm = T, 100% growth inhibition (kills), read-out: Minimum Growth Inhibitory Concentration
Procedure: as §1

[5] = tested on: Cephaloascus fragans; experiment: agar dilution test, growth inhibition of Cephaloascus fragans; details: Cf = Cephaloascus fragans; 100% growth inhibition (kills); read-out: Minimum Growth Inhibitory Concentration
Procedure: as §1

[6] = tested on: S. typhosa; experiment: agar dilution test, growth inhibition of S. typhosa; details: St = S. typhosa; 100% growth inhibition (kills); read-out: Minimum Growth Inhibitory Concentration
Procedure: as §1

[7] = tested on: R. nigricans; experiment: agar dilution test, growth inhibition of R. nigricans; details: Rhizopus stolonifer; Rn = R. nigricans; 100% growth inhibition (kills); read-out: Minimum Growth Inhibitory Concentration
Procedure: as §1

[8] = tested on: P. aeruginosa; experiment: agar dilution test, growth inhibition of P. aeruginosa; details: Pseudomonas aeruginosa; Pa = P. aeruginosa; 100% growth inhibition (kills); read-out: Minimum Growth Inhibitory Concentration
Procedure: as §1

[9] = tested on: Trichoderm Sp. Madison P-42; experiment: agar dilution test, growth inhibition of Trichoderm Sp. Madison P-42; details: Ts = Trichoderm Sp. Madison P-42; 100% growth inhibition (kills); read-out: Minimum Growth Inhibitory Concentration
Procedure: as §1

[10] = tested on: A. terreus; experiment: agar dilution test, growth inhibition of A. terreus; details: Aspergillus terreus; At = A. terreus; 100% growth inhibition (kills); read-out: Minimum Growth Inhibitory Concentration
Procedure: as §1

[11] = tested on: C. pelliculosa; experiment: agar dilution test, growth inhibition of C. pelliculosa; details: Hansenula anomala; Cp = C. pelliculosa; 100% growth inhibition (kills); read-out: Minimum Growth Inhibitory Concentration
Procedure: as §1

[12] = tested on: M. phlei; experiment: agar dilution test, growth inhibition of M. phlei; details: Mycolicibacterium phlei; Mp = M. phlei; 100% growth inhibition (kills); read-out: Minimum Growth Inhibitory Concentration
Procedure: as §1

[13] = tested on: S. aureus; experiment: agar dilution test, growth inhibition of S. aureus; details: Staphylococcus aureus; Sa = S. aureus; 100% growth inhibition (kills); read-out: Minimum Growth Inhibitory Concentration
Procedure: as §1

[14] = tested on: Ceratocystis ips; experiment: agar dilution test, growth inhibition of Ceratocystis ips; details: Ci = Ceratocystis ips; 100% growth inhibition (kills); read-out: Minimum Growth Inhibitory Concentration
Procedure: as §1

SMILES | MIC [1] | MIC [2] | Minimum Growth Inhibitory Concentration [3] | MIC [4] | MIC [5] | MIC [6] | MIC [7] | MIC [8] | MIC [9] | MIC [10] | MIC [11] | MIC [12] | MIC [13] | MIC [14] | MIC [3]
CC1CN(S(=O)(=O)C(Br)Br)CC(C)O1 (stereo not shown) [1 (b), 2,6-Dimethyl-4-((dibromomethyl)sulfonyl)morpholine] | 500 µg/mL (≈ 1420 µM) | 500 µg/mL (≈ 1420 µM) | * | 500 µg/mL (≈ 1420 µM) | 500 µg/mL (≈ 1420 µM) | > 500 µg/mL | 500 µg/mL (≈ 1420 µM) | > 500 µg/mL | > 500 µg/mL | 500 µg/mL (≈ 1420 µM) | 500 µg/mL (≈ 1420 µM) | > 500 µg/mL | > 500 µg/mL | > 500 µg/mL | –
CC1CN(S(=O)(=O)C(Br)(Br)Br)CC(C)O1 (stereo not shown) [1 (a), 2,6-Dimethyl-4-((tribromomethyl)sulfonyl)morpholine] | 100 µg/mL (≈ 233 µM) | 100 µg/mL (≈ 233 µM) | – | 100 µg/mL (≈ 233 µM) | 100 µg/mL (≈ 233 µM) | – | 100 µg/mL (≈ 233 µM) | 100 µg/mL (≈ 233 µM) | 100 µg/mL (≈ 233 µM) | 10 µg/mL (≈ 23.3 µM) | 100 µg/mL (≈ 233 µM) | 100 µg/mL (≈ 233 µM) | 500 µg/mL (≈ 1160 µM) | 100 µg/mL (≈ 233 µM) | 100 µg/mL (≈ 233 µM)
O=S(=O)(N1CCOCC1)C(Br)(Br)Br [2 (b)] | 100 µg/mL (≈ 249 µM) | 100 µg/mL (≈ 249 µM) | – | 100 µg/mL (≈ 249 µM) | 100 µg/mL (≈ 249 µM) | – | 100 µg/mL (≈ 249 µM) | 100 µg/mL (≈ 249 µM) | 100 µg/mL (≈ 249 µM) | 100 µg/mL (≈ 249 µM) | 100 µg/mL (≈ 249 µM) | 100 µg/mL (≈ 249 µM) | 500 µg/mL (≈ 1240 µM) | 100 µg/mL (≈ 249 µM) | 100 µg/mL (≈ 249 µM)
